Measurements taken from patent publication US5202348A, “Thiarubrine antifungal agents” (The University of British Columbia, priority 1990, dated 1993).
Values after ≈ are worked out from the molar mass of the structure shown.

Assays:
[1] = tested on: Candida albicans, Aspergillus fumigatus and Cryptococcus neoformans; assay: Antifungal activity (general statement); assay type: cell-based; conditions: extremely low concentrations
C. albicans [2] = assay: Decomposition of ThD in 95% ethanol in -20° C. (LC50 on C. albicans); assay type: cell-based; conditions: Candida albicans
Source text: (§1) Data on degradation of Thiarubrine D (ThD) expressed as changes of concentration required to inhibit growth of C. albicans in 50% during 24 hrs. exposure (Lc50 24 hrs.).

Aspergillus = assay: Anti-Aspergillus activity (summary); assay type: cell-based; conditions: Table 14;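 note: Letter grades where Y means active and y means less active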
[3] = Growth inhibition of L1210 during 24 hours exposure; assay type: cell-based, Mouse; conditions: mouse, l1210 cells; Table 2; read-out: Toxicity Index, LC50 L1210 / C. albicans
Procedure: (§2) L1210 = Mouse lymphocytic leukemia
(§3) Doses inhibiting growth in 50% were estimated by plotting concentration o
(§4) a logarithmic scale and percent of growth inhibition for 24 hours exposur
(§5) on a probability scale.

L1210 = assay: as above; assay type: cell-based, Mouse; conditions: Mus musculus, L1210; 24 hours exposure; Table 1; read-out: Concentration causing 50% growth inhibition
Procedure: as §2, §3, §4, §5

C. albicans [4] = assay: Growth inhibition of C. albicans during 24 hours exposure; assay type: cell-based, Candida albicans; conditions: Candida albicans, 24 hours exposure
Procedure: as §3, §4, §5

C. albicans [5] = assay: Degradation of ThD under exposure to bench cool white light (LC50 on C. albicans); assay type: cell-based; conditions: Candida albicans
Source text: as §1

Enterococcus faecalis = assay: Minimal inhibitory concentration, agar dilution method; assay type: cell-based; conditions: 21 h
Procedure: (§6) Results were obtained by agar dilution method. Mueller Hinton agar plates (pH - 7.4) with different doses of ThD were inoculated with 10^4 cfu/spot and incubated 21 hours at 34°. MIC is the lowest concentration with no growth.

Enterobacter cloacoe = assay: as above; assay type: cell-based
Procedure: as §6

Zanthomonas maltophilia = assay: as above; assay type: cell-based; conditions: 21 h; No. 15, strain 3E6
Procedure: as §6

Serratia marscenes = assay: as above; assay type: cell-based; conditions: 21 h, No. 27, strain 3A3
Procedure: as §6

Listeria monocytogenes = assay: as above; assay type: cell-based
Procedure: as §6

Klebsiella pneumoniae = assay: as above; assay type: cell-based; conditions: ATCC33495, 21 h, No. 7, ATCC 33495
Procedure: as §6

Candida pseudotropicalis = assay: as above; assay type: cell-based; conditions: Kluyveromyces marxianus, 21 h; No. 10
Procedure: as §6

Acinetobacter = assay: as above; assay type: cell-based
Procedure: as §6

[6] = tested on: Enterococcus (gentamycin res.); assay: as above; assay type: cell-based; conditions: 21 h, read-out: Minimal Inhibitory Concentration
Procedure: as §6

Escherichia coli = assay: as above; assay type: cell-based; conditions: ATCC25992, 21 h, read-out: Minimal Inhibitory Concentration
Procedure: as §6

Staphylococcus epidermis = assay: as above; assay type: cell-based; conditions: ATCC29972, 21 h, No. 8, ATCC 29972
Procedure: as §6

Candida [7] = assay: as above; assay type: cell-based; conditions: 21 h
Procedure: as §6

Pseudomonas aeruginosa = assay: as above; assay type: cell-based
Procedure: as §6

Cryptococcus neoformans = assay: as above; assay type: cell-based; conditions: 21 h, No. 9, F548
Procedure: as §6

Enterobacter sp. = assay: as above; assay type: cell-based; conditions: 21 h, No. 26, strain 9E7
Procedure: as §6

Enterobacter aerogenes = assay: as above; assay type: cell-based; conditions: Klebsiella aerogenes, ATCC35029, 21 h; No. 6, ATCC 35029
Procedure: as §6

C. albicans [8] = assay: LC50 (24 hrs.), doses required to inhibit growth in 50%, different method; assay type: cell-based, Candida albicans
Source text: Doses Required to Inhibit Growth of C. albicans
in 50% During 24 hrs. (ng/ml)

C. albicans [9] = assay: Doses of ThD required to inhibit different numbers of C. albicans cells; assay type: cell-based; conditions: Candida albicans, read-out: LC50 (the source's name)
P. aeruginosa = assay: Growth inhibition of P. aeruginosa during 24 hours exposure; assay type: cell-based, Pseudomonas aeruginosa; conditions: Pseudomonas aeruginosa; 24 hours exposure; Table 4; read-out: Minimal concentration causing 50% growth inhibition
Procedure: as §3, §4, §5

C. albicans [10] = assay: Changes in LC50 on addition of fetal bovine serum to Saboraud dextrose medium; assay type: cell-based; conditions: Candida albicans
Source text: as §1

P815 mastocytoma = assay: LC50 (24 hrs.), doses required to inhibit growth in 50%, different method; assay type: cell-based; conditions: Mus musculus, P815, 24 h, read-out: LC50 (24 hrs.), dose required to inhibit growth in 50%
[11] = Growth inhibition of WEHI-3 during 24 hours exposure; assay type: cell-based, Mouse; conditions: mouse, wehi-3 cells; Table 2; read-out: Toxicity Index, LC50 WEHI-3 / LC50 C. albicans
Procedure: (§7) WEHl3 = Mouse myelomonocyte
as §3, §4, §5

WEHI-3 = assay: as above; assay type: cell-based, Mouse; conditions: Mus musculus, WEHI-3; 24 hours exposure; Table 1; read-out: Concentration causing 50% growth inhibition
Procedure: as §7, §3, §4, §5

Candida [12] = assay: Anti-Candida activity (summary); assay type: cell-based; conditions: Table 14;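 note: Letter grades where Y means active and y means less active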

With `CC#CC1=CC=C(C#CC#CC2CO2)SS1` (stereo not drawn) [Thiarubrine D] the Antifungal activity [1] was “very high antifungal activity”, the IC50 (C. albicans [2]; 0 h, 0 days) was 0.007 µg/mL (≈ 0.0286 µM) and the IC50 (C. albicans [2]; 504 h, 21 days) was 0.017 µg/mL (≈ 0.0696 µM). For the same compound, the Anti-Aspergillus (Aspergillus) was “Y”, the selectivity ratio at 24 h [3] was 78 and the IC50 (L1210) was 0.047 µg/mL (≈ 0.192 µM). It also gave an IC50 (C. albicans [4]; Table 1, read-out: Concentration causing 50% growth inhibition) of 0.0006 µg/mL (≈ 0.00246 µM), an IC50 (C. albicans [4]; Table 4, read-out: Minimal concentration causing 50% growth inhibition) of 0.0006 µg/mL (≈ 0.00246 µM) and an IC50 (C. albicans [5]; 0 mins. exposure to bench cool white light, read-out: LC50 (24 hrs.)) of 0.007 µg/mL (≈ 0.0286 µM). It also gave an IC50 (C. albicans [5]; 5 mins. exposure to bench cool white light, read-out: LC50 (24 hrs.)) of 0.012 µg/mL (≈ 0.0491 µM), an IC50 (C. albicans [5]; 15 mins. exposure to bench cool white light, read-out: LC50 (24 hrs.)) of 0.026 µg/mL (≈ 0.106 µM) and an IC50 (C. albicans [5]; 0.5 hrs. exposure to bench cool white light, read-out: LC50 (24 hrs.)) of 0.14 µg/mL (≈ 0.573 µM). For the same compound, the IC50 (C. albicans [5]; 24 h, read-out: LC50 (24 hrs.), 24 hrs. exposure to bench cool white light) was 5 µg/mL (≈ 20.5 µM), the IC50 (C. albicans [5]; read-out: LC50 (24 hrs.), 6 hrs. exposure to bench cool white light) was 5 µg/mL (≈ 20.5 µM) and the MIC (Enterococcus faecalis; No. 30, strain 1A3) was 10 µg/mL (≈ 40.9 µM). For the same compound, the MIC (Enterococcus faecalis; No. 35, strain 207) was 1 µg/mL (≈ 4.09 µM), the MIC (Enterobacter cloacoe; Enterobacter, 21 h, No. 19, strain 1A5) was 1 µg/mL (≈ 4.09 µM) and the “Minimal Inhibitory Concentration” value (Enterobacter cloacoe; No. 20, strain 9E5) was 1,000 ng/ml. It also gave an MIC (Zanthomonas maltophilia) of 10 µg/mL (≈ 40.9 µM), an MIC (Serratia marscenes) of 10 µg/mL (≈ 40.9 µM) and an MIC (Listeria monocytogenes; Listeria monocytogenes, 21 h, No. 28, strain 106) of 10 µg/mL (≈ 40.9 µM). The “Minimal Inhibitory Concentration” value (Listeria monocytogenes; No. 29, strain 301) was 10,000 ng/ml, the MIC (Klebsiella pneumoniae) was 10 µg/mL (≈ 40.9 µM) and the MIC (Candida pseudotropicalis) was 10 µg/mL (≈ 40.9 µM). The MIC (Acinetobacter; Acinetobacter, 21 h, No. 17, strain C42) was 1 µg/mL (≈ 4.09 µM), the “Minimal Inhibitory Concentration” value (Acinetobacter; No. 18, strain 6C10) was 1,000 ng/ml and the MIC [6] was 0.01 µg/mL (≈ 0.0409 µM). For the same compound, the MIC (Escherichia coli) was 1 µg/mL (≈ 4.09 µM), the MIC (Staphylococcus epidermis) was 10 µg/mL (≈ 40.9 µM) and the MIC (Candida [7]; No. 22, strain 01) was 0.016 µg/mL (≈ 0.0655 µM). For the same compound, the MIC (Candida [7]; No. 23, strain 02) was 0.016 µg/mL (≈ 0.0655 µM), the MIC (Candida [7]; No. 24, strain 03) was 0.064 µg/mL (≈ 0.262 µM) and the MIC (Candida [7]; No. 25, strain R4197) was 0.016 µg/mL (≈ 0.0655 µM). It also gave an MIC (Candida [7]; No. 32, strain F617) of 0.008 µg/mL (≈ 0.0327 µM), an MIC (Pseudomonas aeruginosa; 21 h, No. 12, strain 141) greater than 10 µg/mL and an MIC (Pseudomonas aeruginosa; 21 h, No. 13, strain 205) greater than 10 µg/mL. It also gave an MIC (Pseudomonas aeruginosa; 21 h, No. 14, strain 3E5) of 10 µg/mL (≈ 40.9 µM), an MIC (Pseudomonas aeruginosa; ATCC27853, 21 h, No. 4, ATCC 27853) of 10 µg/mL (≈ 40.9 µM) and an MIC (Cryptococcus neoformans) of 0.064 µg/mL (≈ 0.262 µM). For the same compound, the MIC (Enterobacter sp.) was 10 µg/mL (≈ 40.9 µM), the MIC (Enterobacter aerogenes) was 10 µg/mL (≈ 40.9 µM) and the “Inhibition of growth of Candida albicans” value (C. albicans [8]) was “nanogram/ml range”. It also gave an IC50 (C. albicans [8]; Candida albicans, 24 hrs., Table 7, read-out: LC50 (24 hrs.), dose required to inhibit growth in 50%) of 0.007 µg/mL (≈ 0.0286 µM), an IC50 (C. albicans [9]; cell density 10^4 /ml) of 0.007 µg/mL (≈ 0.0286 µM) and an IC50 (C. albicans [9]; cell density 10^5 /ml) of 0.016 µg/mL (≈ 0.0655 µM). The IC50 (C. albicans [9]; cell density 10^6 /ml) was 0.042 µg/mL (≈ 0.172 µM), the IC50 (P. aeruginosa) was 0.21 µg/mL (≈ 0.859 µM) and the IC50 (C. albicans [10]; SAB) was 0.007 µg/mL (≈ 0.0286 µM). It also gave an IC50 (C. albicans [10]; SAB + 5% FBS) of 0.014 µg/mL, an IC50 (C. albicans [10]; SAB + 10% FBS) of 0.016 µg/mL and an IC50 (P815 mastocytoma) of 0.085 µg/mL (≈ 0.348 µM). For the same compound, the selectivity ratio at 24 h [11] was 83, the IC50 (WEHI-3) was 0.05 µg/mL (≈ 0.205 µM) and the Anti-Candida (Candida [12]) was “Y”.
